Among the data in ChEMBL document CHEMBL3616462, “Synthesis and antiviral activity of maleopimaric and quinopimaric acids' derivatives” (Bioorg Med Chem, 2015) are selectivity ratio, CC50 and EC50 values, retold here.

A short description of series [1]: Selectivity index, ratio of CC50 for Influenza A virus (A/Brisbane/10/2007(H3N2)) infected MDCK cells to EC50 for antiviral activity against Influenza A virus (A/Brisbane/10/2007(H3N2)). Type of series: toxicity, cell-based. The settings on record: dog; read-out: Ratio CC50/EC50.
Series [2] is described as follows: Cytotoxicity against Influenza B virus (B/Florida/4/2006) infected MDCK cells. In kind it is cell-based, Canis lupus familiaris. The settings on record: dog.
The nature of series [3]: Cytotoxicity against Influenza A virus (A/California/07/2009(H1N1)) infected MDCK cells. The settings on record: dog. Type of series: cell-based, Canis lupus familiaris.
Series [4] can be described thus: Cytotoxicity against Influenza A virus (A/Brisbane/10/2007(H3N2)) infected MDCK cells. Type of series: cell-based, Canis lupus familiaris. Particulars: dog.
Series [5] can be described thus: Antiviral activity against Influenza A virus (A/Viet Nam/1203/2004(H5N1)) infected in MDCK cells. In kind it is functional, cell-based.
In the next series the test system is Influenza B virus. The series is described as follows: Antiviral activity against Influenza B virus (B/Florida/4/2006) in MDCK cells. In kind it is functional, cell-based. The settings on record: B/Florida/4/2006, MDCK.
Series [6] is described as follows: Cytotoxicity against Influenza A virus (A/Viet Nam/1203/2004(H5N1)) infected MDCK cells. In kind it is cell-based, Canis lupus familiaris. The settings on record: dog.
A short description of series [7]: Antiviral activity against Influenza A virus (A/Brisbane/10/2007(H3N2)) infected in MDCK cells. In kind it is functional, cell-based.
Series [8] is described as follows: Antiviral activity against Influenza A virus (A/California/07/2009(H1N1)) infected in MDCK cells. Type of series: functional, cell-based.
The nature of series [9]: Selectivity index, ratio of CC50 for Influenza A virus (A/California/07/2009(H1N1)) infected MDCK cells to EC50 for antiviral activity against Influenza A virus H1N1 (A/California/07/2009(H1N1)) infected in MDCK cells. In kind it is toxicity, cell-based. Particulars: dog; read-out: Ratio CC50/EC50.

As to `CC(C)C1=C[C@@]23CC[C@H]4[C@](C)(CO)CCC[C@]4(C)[C@H]2C[C@@H]1[C@@H]1[C@H]3[C@@H](O)CC[C@@H]1O`, in series [1], the selectivity ratio was 1. In addition, the cytotoxic concentration (CC50) in [2] was found to be 31 µM; in series [3], 11 µM; in series [4], 33 µM; in series [6], 29 µM. The EC50 in series [5] is above 29 µM; in the series with Influenza B virus, above 31 µM; in [7], 32 µM; in series [8], above 11 µM.

For the compound `COC(=O)[C@]1(C)CCC[C@]2(C)[C@H]3C[C@H]4C(C(C)C)=C[C@]3(CC[C@H]21)[C@@H]1C(=O)CC[C@H](OCCC#N)[C@@H]14`, the selectivity ratio in series [1] was 2. In addition, the CC50 in [2] is 52 µM; in series [3] it was above 100 µM; in series [4], 68 µM; in series [6] it was 31 µM. Besides, the EC50 in [5] was above 31 µM; in the series with Influenza B virus it was above 52 µM; in series [7], 34 µM; in [8], above 100 µM.

Turning to `COC(=O)[C@]1(C)CCC[C@]2(C)[C@H]3C[C@H]4C(C(C)C)=C[C@]3(CC[C@H]21)[C@@H]1/C(=N/O)CCC(=O)[C@@H]14`, the CC50 in series [2] amounted to 2.4 µM; in series [3] it was 31 µM; in series [4], 13 µM; in series [6], 1.7 µM. Also, the selectivity ratio in [9] was 1. In addition, the EC50 is above 1.7 µM in series [5], above 2.4 µM in the series with Influenza B virus, above 13 µM in series [7] and 31 µM in [8].

As to `COC(=O)[C@]1(C)CCC[C@]2(C)[C@H]3C[C@H]4C(C(C)C)=C[C@]3(CC[C@H]21)[C@@H]1C(=O)C=CC(=O)[C@@H]14`, in series [1], the selectivity ratio was 1.2. For the same compound, the CC50 in series [2] is 2.9 µM; in [3], 5.5 µM; in series [4] it was 3.9 µM; in series [6], 2.9 µM. For the same compound, the EC50 in series [5] was above 2.9 µM; with Influenza B virus it was above 2.9 µM; in series [7], 3.2 µM; in series [8] it was above 5.5 µM.

For `CC(C)C1=C[C@@]23CC[C@@H]4[C@](C)(CCC[C@@]4(C)C(=O)O)[C@H]2C[C@@H]1[C@H]1C(=O)C=CC(=O)[C@H]13`, the CC50 in series [2] is 20 µM; in series [3], 33 µM; in series [4] it was 27 µM; in [6], 30 µM. For the same compound, in series [9], the selectivity ratio amounted to 1. The half-maximal effective concentration (EC50) in [5] is above 30 µM; in the series with Influenza B virus it was above 20 µM; in series [7], above 27 µM; in series [8], 32 µM.

Turning to `COC(=O)[C@]1(C)CCC[C@]2(C)[C@H]3C[C@H]4C(C(C)C)=C[C@]3(CC[C@H]21)[C@@H]1/C(=N/O)CC[C@H](O)[C@@H]14`, the CC50 in series [2] is 1.2 µM; in series [3] it was 3.5 µM; in series [4], 1.6 µM; in series [6] it was 1.2 µM. Besides, the selectivity ratio in series [9] turned out to be 1.1. Further, the EC50 is above 1.2 µM in [5], above 1.2 µM with Influenza B virus, above 1.6 µM in series [7] and 3.2 µM in [8].

`COC(=O)[C@]1(C)CCC[C@]2(C)[C@H]3C[C@H]4C(C(C)C)=C[C@]3(CC[C@H]21)[C@@H]1C(=O)CCC2(OCCO2)[C@@H]14`: the CC50 in series [2] worked out at 27 µM; in series [3], 34 µM; in [4], 26 µM; in series [6], 24 µM. Further, in [9], the selectivity ratio came to 1.3. The EC50 in series [5] is above 24 µM; in the series on Influenza B virus, above 27 µM; in series [7], above 26 µM; in series [8] it was 27 µM.

By CC50 is commonly meant the concentration that lowers cell viability or growth by half. Higher therefore signals better tolerance by the cells. In general, EC50 refers to the concentration at which the effect is half-maximal. A high value points to weaker potency.
